The values below come from patent US20080009418A1, “Selective Inhibitors” (Alchemia LTD., priority 2004, published 2008).

Assay [1] deals with T1, Human μ-opioid (MOP) (Homo sapiens, UniProt P35372).
T1 construct: purchased Perkin Elmer Biosignal
Description: Radioligand binding, human μ-opioid (MOP) membranes, FlashPlate, [3H]-Naloxone. The settings on record: compound at 10 μM; human μ-opioid (MOP) membranes. The gist of the method: (§1)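 Cloned human receptor membranes were coated onto FlashPlate wells and incubated with radioligand and compound (added from a 0.5 mM DMSO daughter plate) for 1 hour at room temperature in the dark. Scintillation counting gave percent inhibition, with DMSO defining total and reference ligand defining non-specific binding.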

Assay [2] deals with T2, Human neuropeptide Y (NPY-Y1) (Homo sapiens, UniProt P25929).
T2 construct: purchased Perkin Elmer Biosignal
T2 sequence (P25929 1-384): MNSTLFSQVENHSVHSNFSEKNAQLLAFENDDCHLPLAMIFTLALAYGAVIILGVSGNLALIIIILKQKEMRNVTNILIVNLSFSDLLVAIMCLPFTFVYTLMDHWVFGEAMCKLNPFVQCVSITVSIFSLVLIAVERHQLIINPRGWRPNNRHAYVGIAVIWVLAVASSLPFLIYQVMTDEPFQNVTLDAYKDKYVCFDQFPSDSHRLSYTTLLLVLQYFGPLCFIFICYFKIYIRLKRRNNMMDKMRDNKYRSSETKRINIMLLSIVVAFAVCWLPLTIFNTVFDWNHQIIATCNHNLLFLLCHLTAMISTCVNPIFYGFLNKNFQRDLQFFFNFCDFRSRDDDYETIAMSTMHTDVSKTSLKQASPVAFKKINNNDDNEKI
Description: Radioligand binding, human neuropeptide Y NPY-Y1 membranes, FlashPlate, [125I]-PYY. To be noted: compound at 10 μM; human NPY-Y1 membranes. The method in brief: as §1

Assay [3] concerns the target T3, Human melanin-concentrating hormone (MCH1) (Homo sapiens, UniProt Q99705).
T3 construct: purchased Perkin Elmer Biosignal
Description: Radioligand binding, human melanin-concentrating hormone MCH1 membranes, FlashPlate, [125I]-S36057. To be noted: compound at 10 μM, human MCH1 membranes. The gist of the method: as §1

Assay [4] addresses T4, Mouse urotensin (mUR2) (Mus musculus, UniProt Q8VIH9).
T4 construct: purchased Perkin Elmer Biosignal
T4 sequence (Q8VIH9 1-385): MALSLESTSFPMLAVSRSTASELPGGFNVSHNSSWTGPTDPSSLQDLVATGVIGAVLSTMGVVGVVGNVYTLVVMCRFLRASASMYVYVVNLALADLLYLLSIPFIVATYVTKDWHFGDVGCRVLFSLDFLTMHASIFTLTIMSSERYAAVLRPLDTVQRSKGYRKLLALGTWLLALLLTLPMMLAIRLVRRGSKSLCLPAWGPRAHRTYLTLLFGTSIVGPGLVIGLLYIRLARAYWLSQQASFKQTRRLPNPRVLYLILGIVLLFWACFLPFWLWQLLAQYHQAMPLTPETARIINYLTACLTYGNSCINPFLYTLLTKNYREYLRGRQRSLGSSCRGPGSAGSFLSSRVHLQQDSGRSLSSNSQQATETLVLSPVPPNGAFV
Description: Radioligand binding, mouse urotensin mUR2 membranes, FlashPlate, [125I]-Urotensin II. The settings on record: compound at 10 μM; mouse urotensin mUR2 membranes. The gist of the method: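 Cloned mouse urotensin (mUR2) receptor membranes from Perkin Elmer Biosignal were immobilized in FlashPlate microplates using a proprietary coating. Each well got 19.5 μl buffer, then 0.5 μl of DMSO, reference ligand, or compound. Adding 5 μl of [125I]-Urotensin II, diluted to 5× final concentration in binding buffer, started binding. Plates were sealed with TopSeal-A and incubated 1 hour at room temperature in the dark. Wells were counted for 30 seconds each on a TopCount after a 60-second delay, and percentage inhibition was calculated.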

In assay [5] the target is T5, Human Melanocortin (MC4) (Homo sapiens, UniProt P32245).
T5 construct: purchased Perkin Elmer Biosignal
Description: Radioligand binding, human melanocortin MC4 membranes, FlashPlate, [125I]-NDP-αMSH. To be noted: compound at 10 μM; human melanocortin MC4 membranes. The method in brief: as §1

In assay [6] the target is T6, Human melanocortin (MC5) (Homo sapiens, UniProt P33032).
T6 construct: purchased Perkin Elmer Biosignal
Put plainly: Radioligand binding, human melanocortin MC5 membranes, FlashPlate, [125I]-NDP-αMSH. To be noted: compound at 10 μM; human melanocortin MC5 membranes. The gist of the method:
as §1

Assay [7] addresses T7, Human κ-Opioid (KOP) (Homo sapiens, UniProt P41145).
T7 construct: purchased Perkin Elmer Biosignal
Put plainly: Radioligand binding, human κ-opioid (KOP) membranes, filtration, [3H]-Diprenorphine. The settings on record: compound at 10 μM; human κ-opioid (KOP) membranes. The method in brief: (§2)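 Percent inhibition of radioligand binding measured on recombinant human membranes: NK1 with [125I]-Substance P, KOP with [3H]-Diprenorphine. Incubation 1 h at room temperature, then harvest onto 0.3% PEI-soaked filters, cold Tris-HCl pH 7.4 washes and scintillation counting; non-specific binding from reference ligand wells.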

Assay [8] has as its target T8, Human δ-opioid (DOP) (Homo sapiens, UniProt P41143).
T8 construct: purchased Perkin Elmer Biosignal
Description: Radioligand binding, human δ-opioid (DOP) membranes, FlashPlate, [3H]-Bremazocine. To be noted: compound at 10 μM; human δ-opioid (DOP) membranes. The method in brief:
as §1

In assay [9] the target is T9, Human opioid (ORL1) (Homo sapiens, UniProt P41146).
T9 construct: purchased Perkin Elmer Biosignal
Description: Radioligand binding, human opioid ORL1 membranes, FlashPlate, [125I]-Nociceptin. The settings on record: compound at 10 μM; human ORL1 membranes. The method in brief:
as §1

For assay [10], the target named is T10, Human neurokinin (NK1) (Homo sapiens, UniProt P25103).
T10 construct: purchased Perkin Elmer Biosignal
Description: Radioligand binding, human neurokinin NK1 membranes, filtration, [125I]-Substance P. The settings on record: compound at 10 μM; human neurokinin NK1 membranes. The method in brief:
as §2

Assay [11] concerns the target T11, Human Melanocortin (MC3) (Homo sapiens, UniProt P41968).
T11 construct: purchased Perkin Elmer Biosignal
Description: Radioligand binding, human melanocortin MC3 membranes, FlashPlate, [125I]-NDP-αMSH. The settings on record: compound at 10 μM; human melanocortin MC3 membranes. The gist of the method:
as §1

T9 sequence (P41146 whole entry): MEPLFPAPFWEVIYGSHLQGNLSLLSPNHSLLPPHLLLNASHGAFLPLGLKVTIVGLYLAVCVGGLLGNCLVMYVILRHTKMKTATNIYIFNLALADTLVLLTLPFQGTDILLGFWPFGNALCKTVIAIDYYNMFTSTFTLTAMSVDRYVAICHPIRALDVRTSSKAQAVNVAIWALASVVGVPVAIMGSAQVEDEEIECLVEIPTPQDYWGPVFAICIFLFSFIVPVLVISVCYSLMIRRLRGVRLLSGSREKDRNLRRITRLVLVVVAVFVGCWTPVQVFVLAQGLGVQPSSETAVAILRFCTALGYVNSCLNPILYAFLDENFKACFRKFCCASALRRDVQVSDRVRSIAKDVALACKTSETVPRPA
T5 sequence (P32245 whole entry): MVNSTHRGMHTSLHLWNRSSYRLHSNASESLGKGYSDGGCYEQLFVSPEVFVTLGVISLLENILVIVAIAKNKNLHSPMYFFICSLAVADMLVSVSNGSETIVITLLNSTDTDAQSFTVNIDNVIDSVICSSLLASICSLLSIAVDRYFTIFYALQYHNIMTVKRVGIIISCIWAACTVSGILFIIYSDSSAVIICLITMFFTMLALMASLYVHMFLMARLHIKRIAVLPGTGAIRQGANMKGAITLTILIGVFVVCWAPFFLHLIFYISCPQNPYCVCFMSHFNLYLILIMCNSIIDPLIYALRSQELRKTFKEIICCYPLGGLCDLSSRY
T3 sequence (Q99705 whole entry): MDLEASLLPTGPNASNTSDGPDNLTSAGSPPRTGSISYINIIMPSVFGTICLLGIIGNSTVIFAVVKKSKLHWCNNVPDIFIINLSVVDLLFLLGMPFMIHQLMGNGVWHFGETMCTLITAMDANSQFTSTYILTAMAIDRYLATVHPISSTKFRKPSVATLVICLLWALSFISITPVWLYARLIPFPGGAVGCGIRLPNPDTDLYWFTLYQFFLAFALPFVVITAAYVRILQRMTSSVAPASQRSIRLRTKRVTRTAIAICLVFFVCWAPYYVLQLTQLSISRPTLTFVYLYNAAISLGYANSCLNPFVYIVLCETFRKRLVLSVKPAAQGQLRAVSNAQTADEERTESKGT
T11 sequence (P41968 whole entry): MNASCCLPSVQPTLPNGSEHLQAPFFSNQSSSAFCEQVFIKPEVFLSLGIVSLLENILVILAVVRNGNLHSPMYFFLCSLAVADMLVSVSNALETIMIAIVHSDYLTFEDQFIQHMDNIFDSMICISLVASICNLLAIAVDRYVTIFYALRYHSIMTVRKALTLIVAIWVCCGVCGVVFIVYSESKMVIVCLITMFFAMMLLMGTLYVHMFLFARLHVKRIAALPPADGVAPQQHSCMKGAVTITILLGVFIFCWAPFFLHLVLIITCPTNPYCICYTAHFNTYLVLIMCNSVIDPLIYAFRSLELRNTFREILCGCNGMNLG
T7 sequence (P41145 whole entry): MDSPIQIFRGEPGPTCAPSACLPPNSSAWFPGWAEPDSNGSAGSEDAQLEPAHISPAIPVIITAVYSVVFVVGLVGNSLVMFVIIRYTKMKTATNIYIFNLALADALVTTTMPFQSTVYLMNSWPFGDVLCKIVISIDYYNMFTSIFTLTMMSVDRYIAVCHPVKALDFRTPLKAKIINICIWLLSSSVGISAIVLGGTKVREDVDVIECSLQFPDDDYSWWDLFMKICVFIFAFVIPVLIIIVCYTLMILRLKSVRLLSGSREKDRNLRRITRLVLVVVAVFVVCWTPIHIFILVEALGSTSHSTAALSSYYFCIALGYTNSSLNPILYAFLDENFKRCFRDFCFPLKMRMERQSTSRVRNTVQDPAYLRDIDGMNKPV
T8 sequence (P41143 whole entry): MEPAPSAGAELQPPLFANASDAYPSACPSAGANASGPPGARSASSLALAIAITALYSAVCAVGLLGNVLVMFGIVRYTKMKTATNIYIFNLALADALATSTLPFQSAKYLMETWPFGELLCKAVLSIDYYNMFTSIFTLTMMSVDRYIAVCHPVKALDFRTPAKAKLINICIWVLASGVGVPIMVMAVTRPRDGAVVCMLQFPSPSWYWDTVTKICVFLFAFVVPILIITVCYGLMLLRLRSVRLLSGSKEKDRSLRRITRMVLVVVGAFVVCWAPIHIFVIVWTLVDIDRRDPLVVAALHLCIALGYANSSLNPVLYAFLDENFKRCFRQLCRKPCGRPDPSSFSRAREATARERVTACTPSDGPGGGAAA
T1 sequence (P35372 whole entry): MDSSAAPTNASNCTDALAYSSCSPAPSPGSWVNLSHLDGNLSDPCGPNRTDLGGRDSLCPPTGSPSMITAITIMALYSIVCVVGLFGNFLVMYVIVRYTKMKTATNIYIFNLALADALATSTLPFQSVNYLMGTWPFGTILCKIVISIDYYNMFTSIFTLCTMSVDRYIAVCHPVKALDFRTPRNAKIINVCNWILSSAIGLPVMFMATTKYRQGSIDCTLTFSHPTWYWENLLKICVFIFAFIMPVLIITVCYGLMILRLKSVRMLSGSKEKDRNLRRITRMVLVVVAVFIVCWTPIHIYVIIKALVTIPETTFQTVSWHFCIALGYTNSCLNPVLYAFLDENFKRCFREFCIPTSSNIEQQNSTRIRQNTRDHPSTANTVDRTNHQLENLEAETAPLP
T10 sequence (P25103 whole entry): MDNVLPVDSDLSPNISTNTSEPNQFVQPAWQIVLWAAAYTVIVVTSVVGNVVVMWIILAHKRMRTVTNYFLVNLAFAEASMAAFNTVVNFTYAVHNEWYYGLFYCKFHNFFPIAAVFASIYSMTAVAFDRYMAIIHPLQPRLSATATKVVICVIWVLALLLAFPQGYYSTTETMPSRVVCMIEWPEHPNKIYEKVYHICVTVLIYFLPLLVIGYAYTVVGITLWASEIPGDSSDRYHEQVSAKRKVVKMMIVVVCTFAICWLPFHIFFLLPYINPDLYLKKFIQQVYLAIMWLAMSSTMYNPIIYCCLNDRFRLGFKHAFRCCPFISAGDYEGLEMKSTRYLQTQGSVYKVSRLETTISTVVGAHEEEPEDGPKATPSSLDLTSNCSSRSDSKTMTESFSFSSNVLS
T6 sequence (P33032 whole entry): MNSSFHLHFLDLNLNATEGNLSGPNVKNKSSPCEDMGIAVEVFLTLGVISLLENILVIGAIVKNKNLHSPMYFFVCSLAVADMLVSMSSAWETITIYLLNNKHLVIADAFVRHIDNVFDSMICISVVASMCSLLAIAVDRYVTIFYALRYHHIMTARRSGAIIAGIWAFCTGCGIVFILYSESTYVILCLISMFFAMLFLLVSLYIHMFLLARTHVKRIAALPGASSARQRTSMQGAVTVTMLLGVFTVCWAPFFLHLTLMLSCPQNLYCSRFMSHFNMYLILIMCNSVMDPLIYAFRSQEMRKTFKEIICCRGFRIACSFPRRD

Take `COC[C@H]1OC(OCc2ccc(-c3ccccc3)cc2)[C@H](NC(=O)CCCNC(=N)N)[C@@H](OCc2ccc3ccccc3c2)[C@@H]1O` (stereo partly shown) [compound 6]: the “A7 radioligand binding inhibition” value in assay [1] is recorded as “+ (“+” indicates greater than 50% inhibition at 10 μM)”. Moreover, in [2], the “A9 radioligand binding inhibition” value is reported as “− (“−” indicates less than 50% inhibition at 10 μM)”. Further, the “A6 radioligand binding inhibition” value in assay [3] was “+ (“+” indicates greater than 50% inhibition at 10 μM)”. The “A11 radioligand binding inhibition” value in [4] is “− (“−” indicates less than 50% inhibition at 10 μM)”. Moreover, the “A4 radioligand binding inhibition” value in [5] was “− (“−” indicates less than 50% inhibition at 10 μM)”. Moreover, in [6], the “A5 radioligand binding inhibition” value was “+ (“+” indicates greater than 50% inhibition at 10 μM)”. In addition, the “A2 radioligand binding inhibition” value in assay [7] was “+ (“+” indicates greater than 50% inhibition at 10 μM)”. In addition, in assay [8], the “A1 radioligand binding inhibition” value was “− (“−” indicates less than 50% inhibition at 10 μM)”. In addition, the “A10 radioligand binding inhibition” value in assay [9] is recorded as “− (“−” indicates less than 50% inhibition at 10 μM)”. The “A8 radioligand binding inhibition” value in assay [10] is “+ (“+” indicates greater than 50% inhibition at 10 μM)”. In assay [11], the “A3 radioligand binding inhibition” value was “− (“−” indicates less than 50% inhibition at 10 μM)”.
With `COC[C@H]1OC(OCc2ccc(-c3ccccc3)cc2)[C@H](NC(=O)CCNC(=N)N)[C@@H](OCc2ccccc2)[C@@H]1O` (stereo partly shown) [compound 7], the “A7 radioligand binding inhibition” value in [1] is on record as “+ (“+” indicates greater than 50% inhibition at 10 μM)”. For the same molecule, the “A9 radioligand binding inhibition” value in assay [2] was “− (“−” indicates less than 50% inhibition at 10 μM)”. Further, the “A6 radioligand binding inhibition” value in assay [3] was “+ (“+” indicates greater than 50% inhibition at 10 μM)”. Moreover, the “A11 radioligand binding inhibition” value in assay [4] was “− (“−” indicates less than 50% inhibition at 10 μM)”. For the same molecule, the “A4 radioligand binding inhibition” value in assay [5] is given as “− (“−” indicates less than 50% inhibition at 10 μM)”. Further, the “A5 radioligand binding inhibition” value in assay [6] is listed as “− (“−” indicates less than 50% inhibition at 10 μM)”. In addition, in assay [7], the “A2 radioligand binding inhibition” value is “− (“−” indicates less than 50% inhibition at 10 μM)”. Further, the “A1 radioligand binding inhibition” value in assay [8] is given as “− (“−” indicates less than 50% inhibition at 10 μM)”. Besides, in assay [9], the “A10 radioligand binding inhibition” value is listed as “− (“−” indicates less than 50% inhibition at 10 μM)”. Besides, the “A8 radioligand binding inhibition” value in assay [10] is listed as “+ (“+” indicates greater than 50% inhibition at 10 μM)”. Also, the “A3 radioligand binding inhibition” value in assay [11] was “− (“−” indicates less than 50% inhibition at 10 μM)”.
For `COC[C@H]1OC(OCc2ccc(-c3ccccc3)cc2)[C@H](NC(=O)CCCNC(=N)N)[C@@H](OCc2ccccc2)[C@@H]1O` (stereo partly shown) [compound 8], the “A7 radioligand binding inhibition” value in assay [1] was “− (“−” indicates less than 50% inhibition at 10 μM)”. Further, the “A9 radioligand binding inhibition” value in assay [2] is “− (“−” indicates less than 50% inhibition at 10 μM)”. Further, the “A6 radioligand binding inhibition” value in assay [3] (10 µM) is given as “+ (“+” indicates greater than 50% inhibition at 10 μM)”. For the same molecule, the “A11 radioligand binding inhibition” value in [4] was “− (“−” indicates less than 50% inhibition at 10 μM)”. Further, the “A4 radioligand binding inhibition” value in assay [5] is recorded as “− (“−” indicates less than 50% inhibition at 10 μM)”. Moreover, in assay [6], the “A5 radioligand binding inhibition” value was “− (“−” indicates less than 50% inhibition at 10 μM)”. Moreover, in assay [7], the “A2 radioligand binding inhibition” value is on record as “− (“−” indicates less than 50% inhibition at 10 μM)”. Further, the “A1 radioligand binding inhibition” value in assay [8] is listed as “− (“−” indicates less than 50% inhibition at 10 μM)”. The “A10 radioligand binding inhibition” value in assay [9] was “− (“−” indicates less than 50% inhibition at 10 μM)”. The “A8 radioligand binding inhibition” value in assay [10] is “+ (“+” indicates greater than 50% inhibition at 10 μM)”. Besides, the “A3 radioligand binding inhibition” value in assay [11] was “− (“−” indicates less than 50% inhibition at 10 μM)”.
Consider `COC[C@H]1OC(OCc2ccc(-c3ccccc3)cc2)[C@H](NC(=O)CCCNC(=N)N)[C@@H](OCc2ccccc2)[C@@H]1O` (stereo partly shown) [compound 9], for which the “A7 radioligand binding inhibition” value in assay [1] is on record as “− (“−” indicates less than 50% inhibition at 10 μM)”. For the same molecule, the “A9 radioligand binding inhibition” value in [2] is reported as “− (“−” indicates less than 50% inhibition at 10 μM)”. For the same molecule, in assay [3] (10 µM), the “A6 radioligand binding inhibition” value was “− (“−” indicates less than 50% inhibition at 10 μM)”. In addition, the “A11 radioligand binding inhibition” value in assay [4] is “− (“−” indicates less than 50% inhibition at 10 μM)”. Further, the “A4 radioligand binding inhibition” value in assay [5] is recorded as “− (“−” indicates less than 50% inhibition at 10 μM)”. For the same molecule, the “A5 radioligand binding inhibition” value in assay [6] is “− (“−” indicates less than 50% inhibition at 10 μM)”. The “A2 radioligand binding inhibition” value in assay [7] is “− (“−” indicates less than 50% inhibition at 10 μM)”. Besides, the “A1 radioligand binding inhibition” value in [8] is “− (“−” indicates less than 50% inhibition at 10 μM)”. Further, the “A10 radioligand binding inhibition” value in assay [9] is “− (“−” indicates less than 50% inhibition at 10 μM)”. Besides, the “A8 radioligand binding inhibition” value in assay [10] is given as “+ (“+” indicates greater than 50% inhibition at 10 μM)”. In addition, in assay [11], the “A3 radioligand binding inhibition” value was “− (“−” indicates less than 50% inhibition at 10 μM)”.
For the molecule `COC[C@H]1OC(OCc2ccc(-c3ccccc3)cc2)[C@H](NC(=O)CNC(=N)N)[C@@H](OCc2ccc(Cl)cc2)[C@@H]1O` (stereo partly shown) [compound 10], the “A7 radioligand binding inhibition” value in assay [1] was “− (“−” indicates less than 50% inhibition at 10 μM)”. The “A9 radioligand binding inhibition” value in assay [2] is reported as “− (“−” indicates less than 50% inhibition at 10 μM)”. The “A6 radioligand binding inhibition” value in assay [3] is on record as “+ (“+” indicates greater than 50% inhibition at 10 μM)”. Further, in assay [4], the “A11 radioligand binding inhibition” value is given as “− (“−” indicates less than 50% inhibition at 10 μM)”. In addition, the “A4 radioligand binding inhibition” value in [5] is on record as “− (“−” indicates less than 50% inhibition at 10 μM)”. Also, the “A5 radioligand binding inhibition” value in assay [6] is recorded as “+ (“+” indicates greater than 50% inhibition at 10 μM)”. Besides, in assay [7], the “A2 radioligand binding inhibition” value is “− (“−” indicates less than 50% inhibition at 10 μM)”. Moreover, the “A1 radioligand binding inhibition” value in assay [8] is “− (“−” indicates less than 50% inhibition at 10 μM)”. Also, the “A10 radioligand binding inhibition” value in assay [9] was “− (“−” indicates less than 50% inhibition at 10 μM)”. Also, the “A8 radioligand binding inhibition” value in assay [10] is “+ (“+” indicates greater than 50% inhibition at 10 μM)”. Further, the “A3 radioligand binding inhibition” value in assay [11] was “− (“−” indicates less than 50% inhibition at 10 μM)”.
